Laboratory results as given in PubChem BioAssay AID330 (DTP/NCI, 2004).
Where “and” joins values, the source holds several entries; their conditions need not be identical. Identical values can stand only once. Inconclusive results and toxic doses are left out.

System: P388 leukemia ip, CD2F1 mice, survival T/C
Assay: NCI In Vivo Anticancer Drug Screen. Data for tumor model P388 Leukemia (intraperitoneal) in CD2F1 (CDF1) mice
Conditions: endpoint: median survival time, higher = longer survival
In short: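 Mice carrying the transplanted tumor received test compound or vehicle. Survival was recorded in each group, and the value is the treated-group measurement divided by that of the vehicle-treated control group.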

[1] = dose: 50.0 mg/kg/injection, schedule: Q01DX009 (ip), vehicle: saline with Tween-80
[2] = dose: 100.0 mg/kg/injection, schedule: Q01DX009 (ip), vehicle: saline with Tween-80
[3] = dose: 200.0 mg/kg/injection, schedule: Q01DX009 (ip), vehicle: saline with Tween-80
[4] = dose: 400.0 mg/kg/injection, schedule: Q01DX009 (ip), vehicle: saline with Tween-80
[5] = dose: 25.0 mg/kg/injection, schedule: Q04DX003 (ip), vehicle: saline with Tween-80
[6] = dose: 50.0 mg/kg/injection, schedule: Q04DX003 (ip), vehicle: saline with Tween-80
[7] = dose: 100.0 mg/kg/injection, schedule: Q04DX003 (ip), vehicle: saline with Tween-80
[8] = dose: 50.0 mg/kg/injection, schedule: Q01DX005 (ip), vehicle: Klucel (hydroxypropylcellulose) (HPC)
[9] = dose: 100.0 mg/kg/injection, schedule: Q01DX005 (ip), vehicle: Klucel (hydroxypropylcellulose) (HPC)
[10] = dose: 200.0 mg/kg/injection, schedule: Q01DX005 (ip), vehicle: Klucel (hydroxypropylcellulose) (HPC)
[11] = dose: 200.0 mg/kg/injection, schedule: Q04DX003 (ip), vehicle: saline with Tween-80
[12] = dose: 50.0 mg/kg/injection, schedule: Q01DX005 (ip), vehicle: saline
[13] = dose: 100.0 mg/kg/injection, schedule: Q01DX005 (ip), vehicle: saline
[14] = dose: 200.0 mg/kg/injection, schedule: Q01DX005 (ip), vehicle: saline
[15] = dose: 100.0 mg/kg/injection, schedule: Q01DX001 (ip), vehicle: Klucel (hydroxypropylcellulose) (HPC)
[16] = dose: 200.0 mg/kg/injection, schedule: Q01DX001 (ip), vehicle: Klucel (hydroxypropylcellulose) (HPC)
[17] = dose: 60.0 mg/kg/injection, schedule: Q01DX005 (ip), vehicle: Klucel + Tween-80
[18] = dose: 30.0 mg/kg/injection, schedule: Q01DX005 (ip), vehicle: saline with Tween-80
[19] = dose: 60.0 mg/kg/injection, schedule: Q01DX005 (ip), vehicle: saline with Tween-80
[20] = dose: 120.0 mg/kg/injection, schedule: Q01DX005 (ip), vehicle: saline with Tween-80
[21] = dose: 240.0 mg/kg/injection, schedule: Q01DX005 (ip), vehicle: saline with Tween-80
[22] = dose: 7.5 mg/kg/injection, schedule: Q01DX005 (ip), vehicle: saline with Tween-80
[23] = dose: 15.0 mg/kg/injection, schedule: Q01DX005 (ip), vehicle: saline with Tween-80

## O=NN(CCS(=O)CCCl)C(=O)NC1CCCCC1 (stereo unspecified)
dose: 3.13 mg/kg/injection, schedule: Q01DX009 (ip), vehicle: water
  T/C: 102 % of control
dose: 6.25 mg/kg/injection, schedule: Q01DX009 (ip), vehicle: water
  T/C: 110 % of control
dose: 12.5 mg/kg/injection, schedule: Q01DX009 (ip), vehicle: water
  T/C: 111 % of control
dose: 25.0 mg/kg/injection, schedule: Q01DX009 (ip), vehicle: water
  T/C: 124 % of control
dose: 100.0 mg/kg/injection, schedule: Q01DX009 (ip), vehicle: water
  T/C: 159 % of control

## CN(C)P(=O)(N(C)C)N1CCCCCC1
[1]
  T/C: 102 % of control
[2]
  T/C: 106 % of control
[3]
  T/C: 94 % of control

## O=C(CCl)NC(Cc1ccccc1)C(=O)O (stereo unspecified)
dose: 25.0 mg/kg/injection, schedule: Q01DX009 (ip), vehicle: saline with Tween-80
  T/C: 99 % of control
[1]
  T/C: 99 % of control and 89 % of control
[2]
  T/C: 100 % of control and 104 % of control
[3]
  T/C: 94 % of control
[4]
  T/C: 103 % of control

## O=c1c2c([nH]c3c1c1[nH]c4c(c(=O)c1c1[nH]c5c(c(=O)c31)CCCC5)CCCC4)CCCC2
[5]
  T/C: 104 % of control
[6]
  T/C: 95 % of control
[7]
  T/C: 87 % of control and 95 % of control

## O=C(CC(=O)NO)NO
[1]
  T/C: 106 % of control
dose: 50.0 mg/kg/injection, schedule: Q01DX009 (ip), vehicle: saline
  T/C: 115 % of control
[2]
  T/C: 108 % of control
dose: 100.0 mg/kg/injection, schedule: Q01DX009 (ip), vehicle: saline
  T/C: 110 % of control
[3]
  T/C: 108 % of control
dose: 200.0 mg/kg/injection, schedule: Q01DX009 (ip), vehicle: saline
  T/C: 108 % of control

## CC(C)c1c(O)c(O)c2c(c1O)C(=O)C(O)=C1C(C)(C)CCC[C@@]12C
dose: 12.5 mg/kg/injection, schedule: Q01DX005 (ip), vehicle: Klucel (hydroxypropylcellulose) (HPC)
  T/C: 98 % of control
dose: 25.0 mg/kg/injection, schedule: Q01DX005 (ip), vehicle: Klucel (hydroxypropylcellulose) (HPC)
  T/C: 94 % of control
[8]
  T/C: 102 % of control
[9]
  T/C: 100 % of control
[10]
  T/C: 109 % of control

## CCOC(=O)C(=Cc1c[nH]c2ccc(Br)cc12)C(=O)OCC
[2]
  T/C: 104 % of control
[7]
  T/C: 109 % of control
[3]
  T/C: 87 % of control
[11]
  T/C: 109 % of control
[4]
  T/C: 100 % of control
dose: 400.0 mg/kg/injection, schedule: Q04DX003 (ip), vehicle: saline with Tween-80
  T/C: 100 % of control

## CC(=O)c1cc(CN(C)C)c(O)c(CN(C)C)c1
[12]
  T/C: 101 % of control
[13]
  T/C: 99 % of control
[14]
  T/C: 99 % of control

## CCC(=O)NNc1cccc(Cl)n1
dose: 50.0 mg/kg/injection, schedule: Q01DX001 (ip), vehicle: Klucel (hydroxypropylcellulose) (HPC)
  T/C: 98 % of control
[15]
  T/C: 94 % of control
[16]
  T/C: 108 % of control

## Cc1ccc(C)c2c(Nc3ccc4c(c3)OCO4)c(C(=O)O)cnc12
[17]
  T/C: 95 % of control
dose: 120.0 mg/kg/injection, schedule: Q01DX005 (ip), vehicle: Klucel + Tween-80
  T/C: 93 % of control

## CC12C3=CC=C4C=CC=C(c5ccccc5C1=CC=C3)C42C (stereo unspecified)
dose: 50.0 mg/kg/injection, schedule: Q04DX002 (ip), vehicle: Klucel (hydroxypropylcellulose) (HPC)
  T/C: 100 % of control
dose: 100.0 mg/kg/injection, schedule: Q04DX002 (ip), vehicle: Klucel (hydroxypropylcellulose) (HPC)
  T/C: 111 % of control
dose: 200.0 mg/kg/injection, schedule: Q04DX002 (ip), vehicle: Klucel (hydroxypropylcellulose) (HPC)
  T/C: 107 % of control

## CC(=O)OCCNc1n[nH]c(=O)c2cnccc12
[18]
  T/C: 110 % of control
[19]
  T/C: 104 % of control
[20]
  T/C: 101 % of control
[21]
  T/C: 103 % of control

## [N-]=[N+]=NC(=O)Nc1cccc(C(F)(F)F)c1
dose: 15.0 mg/kg/injection, schedule: Q01DX005 (ip), vehicle: Klucel + Tween-80
  T/C: 103 % of control
dose: 30.0 mg/kg/injection, schedule: Q01DX005 (ip), vehicle: Klucel + Tween-80
  T/C: 96 % of control
[17]
  T/C: 100 % of control and 93 % of control

## O=[N+]([O-])c1ccc2c(c1)C1CN(Cc3ccccc31)C2 (stereo unspecified)
dose: 100.0 mg/kg/injection, schedule: Q01DX001 (ip), vehicle: saline with Tween-80
  T/C: 90 % of control
dose: 200.0 mg/kg/injection, schedule: Q01DX001 (ip), vehicle: saline with Tween-80
  T/C: 89 % of control
dose: 400.0 mg/kg/injection, schedule: Q01DX001 (ip), vehicle: saline with Tween-80
  T/C: 97 % of control

## C/C(=N\N1CN(C(C)C(=O)O)P(Nc2ncn[nH]2)N=C1N)c1cccs1 (stereo unspecified)
[22]
  T/C: 96 % of control
[23]
  T/C: 103 % of control
[18]
  T/C: 106 % of control

## CCCCN=Cc1ccccc1
[7]
  T/C: 100 % of control
[11]
  T/C: 100 % of control

## COC(=O)c1ccc(SCCC(C)=O)cc1
[1]
  T/C: 99 % of control
[2]
  T/C: 106 % of control
[3]
  T/C: 101 % of control

## O=[N+]([O-])c1ccc2[nH]c3cnccc3c2c1
dose: 12.5 mg/kg/injection, schedule: Q01DX009 (ip), vehicle: other
  T/C: 106 % of control
dose: 25.0 mg/kg/injection, schedule: Q01DX009 (ip), vehicle: other
  T/C: 105 % of control
dose: 50.0 mg/kg/injection, schedule: Q01DX009 (ip), vehicle: other
  T/C: 108 % of control
dose: 100.0 mg/kg/injection, schedule: Q01DX009 (ip), vehicle: other
  T/C: 107 % of control

## FC(F)(F)c1ccccc1Nc1nnc(-c2ccc(Cl)cc2Cl)o1
[19]
  T/C: 100 % of control
[20]
  T/C: 96 % of control
[21]
  T/C: 87 % of control

## CC1(C)CC2(C)OC2C2(C1)N=NC(=Nc1ccccc1)O2 (stereo unspecified)
[1]
  T/C: 105 % of control and 92 % of control
[2]
  T/C: 120 % of control and 97 % of control
[3]
  T/C: 108 % of control

## CN(C)C(P1(=O)OC(C)(C)C(C)(C)O1)P1(=O)OC(C)(C)C(C)(C)O1
[12]
  T/C: 104 % of control
[13]
  T/C: 99 % of control
[14]
  T/C: 98 % of control

## C=C(C)COC(=O)C1C2CC(C3OC23)C1C(=O)OCC(=C)C (stereo unspecified)
[8]
  T/C: 102 % of control
[9]
  T/C: 104 % of control
[10]
  T/C: 100 % of control

## O=c1oc2cc(Cl)cnc2n1-c1ccccc1
[15]
  T/C: 96 % of control
[16]
  T/C: 98 % of control
dose: 400.0 mg/kg/injection, schedule: Q01DX001 (ip), vehicle: Klucel (hydroxypropylcellulose) (HPC)
  T/C: 90 % of control

## O=C(N=c1sc2ccccc2s1)N=c1sc2ccccc2s1
dose: 30.0 mg/kg/injection, schedule: Q01DX005 (ip), vehicle: Klucel (hydroxypropylcellulose) (HPC)
  T/C: 99 % of control
dose: 60.0 mg/kg/injection, schedule: Q01DX005 (ip), vehicle: Klucel (hydroxypropylcellulose) (HPC)
  T/C: 86 % of control and 91 % of control
dose: 120.0 mg/kg/injection, schedule: Q01DX005 (ip), vehicle: Klucel (hydroxypropylcellulose) (HPC)
  T/C: 95 % of control

## NC(=O)Nc1ccc(/C=C\c2ccnc3ccccc23)cc1
[5]
  T/C: 96 % of control
[6]
  T/C: 93 % of control
[7]
  T/C: 89 % of control

## CCOC(=O)C(=CN(C)c1ccc(C)cc1)C(=O)OCC
[1]
  T/C: 100 % of control
[2]
  T/C: 103 % of control
[3]
  T/C: 95 % of control

## COC(=O)C1C(=O)COc2ccccc21 (stereo unspecified)
dose: 100.0 mg/kg/injection, schedule: Q04DX003 (ip), vehicle: saline
  T/C: 105 % of control
dose: 200.0 mg/kg/injection, schedule: Q04DX003 (ip), vehicle: saline
  T/C: 106 % of control
dose: 400.0 mg/kg/injection, schedule: Q04DX003 (ip), vehicle: saline
  T/C: 106 % of control

## Cc1cc[n+](C2=C(Nc3cccc(C(F)(F)F)c3)C(=O)c3ccccc3C2=O)cc1
dose: 3.75 mg/kg/injection, schedule: Q01DX005 (ip), vehicle: saline with Tween-80
  T/C: 105 % of control
[22]
  T/C: 119 % of control
[23]
  T/C: 105 % of control
